# Source: publication PMC8251916 (Chemistry (Weinheim an Der Bergstrasse, Germany), 2021)
# Where two headings read alike, the source gives them in different places.
# What was measured:
# [1] = tested on: F10T (DNA, hairpin, hexaethylene glycol (HEG) linker between 10 and 11) TATAGCTATATATAGCTATA; assay: FRET melting; settings: 10 mM K+, 90 mM Li+; 10 mM Li cacodylate; 1 µM ligand, 200 nM DNA
# T. brucei [2] = tested on: T. brucei; set-up: method as in earlier work; settings: typical G4 interactive compounds; ref 6b; cited from earlier work
# [3] = tested on: F21T-K+ (human telomeric G-quadruplex, mixed parallel/hybrid); assay: FRET melting assay, human telomeric G4 in potassium buffer; format: binding; settings: 200 nM DNA, PIPER and 3 not reliable (spectral overlap)
# Protocol: (§1) With the library in hand, we began our investigation into G4 stabilization by conducting a Förster resonance energy transfer (FRET) melting assay to assess DNA stabilization using the procedure outlined by De Cian et. al. ^[13] […] The sequences examined (at 200 nM) were the human telomeric G4 in potassium buffer (F21T‐K^+, mixed parallel/hybrid G4) ^[14] and sodium buffer (F21T‐Na^+, antiparallel G4), ^[15] the c‐Myc promoter G‐quadruplex (FmycT‐K^+, parallel G4), ^[16] a polymorphic G4 found in T. brucei (FEBR1T‐K^+, a mixed G4 topology), ^[6b] and a hairpin duplex DNA sequence (F10T‐K^+). Together, these sequences represent targets for therapeutic intervention to treat parasitic infections, ^[6b] or cancer. ^[1b] The topology of each sequence was confirmed independently via circular dichroism (CD, Figure S1). […]
# (§2) FRET melting assays were performed to assess ligand affinity for duplex and G-quadruplex
# (§3) DNA. Briefly, oligonucleotides of interest were obtained labelled at the 5’ and 3’ ends with FAM (a fluorescence donor) and TAMRA (a fluorescence quencher), respectively. In the folded state, proximity of the donor and quencher result in no observed fluorescence from FAM, since energy is transferred non-radiatively to TAMRA by FRET. As the temperature is raised and the secondary structure denatures, the fluorophores move further apart and the fluorescence signal increases. From the resulting curve, the characteristic melting temperature (Tmax, also referred to as Tm) is defined as the temperature which corresponds to the maxima of the first derivative of the normalised fluorescence signal. The change in melting temperature (ΔTm) induced by the presence of a small molecule ligand provides an indication of the ligand’s ability to stabilise the DNA structure. FRET experiments were performed according to the […]
# (§4) procedure reported by De Cian and co-workers[S3] on a Stratagene MX3005P. The method consisted of holding at 25 °C for 5 min, before heating at 1 °C/min to 96 °C in 1 °C increments, […]
# [4] = tested on: F21T-Na+ (human telomeric G-quadruplex, antiparallel); assay: FRET melting assay, human telomeric G4 in sodium buffer; format: binding; settings: 200 nM DNA, PIPER and 3 not reliable (spectral overlap)
# Protocol: as §1, §2, §3, §4
# [5] = tested on: FmycT-K+ (c-Myc promoter G-quadruplex, parallel); assay: FRET melting assay, c-Myc promoter G4; format: binding; settings: 200 nM DNA, PIPER and 3 not reliable (spectral overlap)
# Protocol: as §1, §2, §3, §4
# [6] = tested on: Febr1T-K+ (T. brucei G-quadruplex); assay: FRET melting assay, T. brucei G4; format: binding; settings: 200 nM DNA, PIPER and 3 not reliable (spectral overlap)
# Protocol: as §1, §2, §3, §4
# [7] = tested on: F10T-K+ (hairpin duplex DNA); assay: FRET melting assay, hairpin duplex DNA; format: binding; settings: 200 nM DNA, PIPER and 3 not reliable (spectral overlap)
# Protocol: as §1, §2, §3, §4
# MRC5 non-tumoral cells = assay: Cytotoxicity, alamarBlue assay, MRC5; format: cell-based, human; settings: Homo sapiens, MRC5, 72 h, 72 h incubation, alamarBlue fluorescence; read-out: absolute EC50 MRC5
# Protocol: (§5) Doxorubicin, suramin and miltefosine were used as control compounds.[ ^6b , ^9 ] After incubation with varied concentrations of the compounds for 72 h, cell viability was measured using either an alamarBlue™ assay (for MRC5, HeLa and T. brucei) or MTT assay (for L. major). Absolute EC50 values and selectivity indexes were then calculated from dose‐response curves (Table 2 and S14). […]
# (§6) Cell culture reagents were purchased from Thermo Fisher Scientific (Waltham, MA, USA) and used as-is. The Dulbecco’s Minimal Essential Medium (DMEM) formulation contained either high glucose (4.5 g/L, catalogue number: 10569) or low glucose (1 g/L, catalogue number:
# (§7) 10567). RPMI-1640 was provided without sodium pyruvate and with L-glutamine (catalogue number: 11875). Phosphate Buffered Saline (PBS) contained NaCl (9 g/L), KH2PO4 (144 mg/L) and Na2HPO4-7.H2O (795 mg/L, catalogue number: 10010049). TrypLE Express™ was provided with EDTA (458 mg/L) and without Phenol Red (catalogue number: 12604021).
# (§8) MRC-5 cells (human lung fibroblasts) were grown in monolayer (37 °C, 5 % CO2 and 100 % humidity) in DMEM medium (1 g/L glucose), supplemented with 10% heat-inactivated Fetal Bovine Serum (hiFBS), 2 mM L-glutamine, 100 U / mL penicillin and […]
# (§9) streptomycin. […]
# (§10) Cells were cultured according to ATCC recommendations and were used for the experiments while in the exponential growth phase. […]
# (§11) Cytotoxicity was measured through the alamarBlue® assay (Thermo Fisher Scientific).[S6,S13] Briefly, 5×10^3 MRC-5 or HeLa cells were seeded in 96-wells plates (100 µL / well) in the presence of increasing concentrations of compound. After 72 hrs of incubation at 37 °C, 20 µL of alamarBlue® solution (110 ng / ml) was added to each well and cells were reincubated for 4 hrs at 37 °C. Then, 50 µL of 3 % SDS were added to each well. The plate was incubated at 37 °C for an extra hour and then analysed by fluorescence with an Infinite F200 plate reader (TECAN Austria, GmbH). The excitation wavelength was fixed at 550 nm and the emission wavelength at 590 nm. The results are expressed as the concentration of compound that reduces
# [8] = tested on: HeLa cervical carcinoma cells; assay: Cytotoxicity, alamarBlue assay, HeLa; format: cell-based, human; settings: Homo sapiens, HeLa; 72 h incubation, alamarBlue fluorescence; read-out: absolute EC50 HeLa
# Protocol: as §5, §6, §7
# MRC-5 cells (human lung fibroblasts) were grown in monolayer (37 °C, 5 % CO2 and 100 % humidity) in DMEM medium (1 g/L glucose), supplemented with 10% heat-inactivated Fetal Bovine Serum (hiFBS), 2 mM L-glutamine, 100 U / mL penicillin and […] streptomycin. HeLa (Human cervical carcinoma cell line) cells were maintained at 37 °C and 5 % CO2 in high glucose DMEM (4.5 g / L) supplemented with 10% hiFBS, 100 U / ml penicillin, […] streptomycin, 2 mM L-glutamine and non-essential aminoacids (1X).
# as §10, §11
# T. brucei [9] = assay: Trypanocidal activity, alamarBlue assay; format: cell-based; settings: Trypanosoma brucei; 72 h incubation, alamarBlue fluorescence; read-out: absolute EC50 T. brucei
# Protocol: as §5, §6, §7, §8, §9, §10
# hiFBS. Parasites were split every other day and maintained in their experimental growth phase (below 2 million parasites per mL).
# as §11
# L. major = assay: Leishmaniacidal activity, MTT assay; format: cell-based; settings: Leishmania major; 72 h incubation, MTT absorbance; read-out: absolute EC50 L. major
# Protocol: Doxorubicin, suramin and miltefosine were used as control compounds.[ ^6b , ^9 ] After incubation with varied concentrations of the compounds for 72 h, cell viability was measured using either an alamarBlue™ assay (for MRC5, HeLa and T. brucei) or MTT assay (for L. major). Absolute EC50 values and selectivity indexes were then calculated from dose‐response curves (Table 2 and S14).
# Invitrogen). L. major promastigotes (MHOM/IL/80/Friedlin) were cultured at 28 °C, 5 % CO2 in modified RPMI-1640 medium (Thermo Fisher Scientific, Waltham, MA, USA) with 10% hiFBS. Parasites were split every other day and maintained in their experimental growth phase (below 2 million parasites per mL). […]
# The results are expressed as the concentration of compound that reduces cell growth by 50 % versus untreated control cells (EC50) using GraphPad Prism 7 (GraphPad Software) to fit the data to a sigmoidal curve. Data are presented as the average of three independent measurements all conducted in triplicate conditions. […]
# The leishmaniacidal activity of the compounds on promastigotes L. major (MHOM/IL/80/Friedlin) was carried out as previously described.[S14] Briefly, 4 × 10^6 / mL promastigotes were incubated for 72 h at 28 °C in 96-well plates (50 µL/well) in the presence of increasing concentration of compounds. Cell proliferation was determined using an MTT-based assay (Sigma-Aldrich). Thus, after the 72 h incubation, 10 µL of MTT (5 mg/ml) were added to each well and parasites were reincubated for 4 hrs at 28 °C. Then, 50 µL of 20 % SDS were added to each well. The plate was then incubated at 37°C for 4-16 hrs and analysed using an Infinite F200 plate reader (TECAN Austria, GmbH). The absorbance was measured […]
# at a wavelength of 540 nm and the EC50 was calculated as described above. Data are presented as the average of three independent measurements, all conducted in triplicate conditions. […]
# [10] = tested on: F21T (DNA, G4) GGGTTAGGGTTAGGGTTAGGG; assay: FRET melting; settings: 10 mM K+, 90 mM Li+, 10 mM Li cacodylate, 200 nM DNA
# [11] = tested on: FMycT (DNA, G4) TTGAGGGTGGGTAGGGTGGGTAA; assay: FRET melting; settings: 1 mM K+, 99 mM Li+; 10 mM Li cacodylate; 1 µM ligand, 200 nM DNA
# [12] = tested on: Febr1T (DNA, G4) GGGCAGGGGGTGATGGGGAGGAGCCAGGG; assay: FRET melting; settings: 10 mM K+, 90 mM Li+; 10 mM Li cacodylate; 1 µM ligand, 200 nM DNA
compound,measurement,setting,value
C[n+]1ccc(-c2c3nc(c(-c4cc[n+](C)cc4)c4ccc([nH]4)c(-c4cc[n+](C)cc4)c4nc(c(-c5cc[n+](C)cc5)c5ccc2[nH]5)C=C4)C=C3)cc1,ΔTm,[1],9 ± 1 °C
CN(C)c1ccc(Nc2c3ccc(NC(=O)CCN4CCCC4)cc3nc3cc(NC(=O)CCN4CCCC4)ccc23)cc1 [BRACO‐19],EC50,T. brucei [2],7.8 µM
same,selectivity index (SI) T. brucei over MRC5,T. brucei [2],1.5
CN1CCN(CCCN2C(=O)c3ccc(-c4ccc5c(c4)C(=O)N(CCCN4CCN(C)CC4)C5=O)cc3C2=O)CC1 [Compound 4],ΔTm F21T-K+,[3]; 10 µM ligand,1 ± 1 °C
same,ΔTm F21T-Na+,[4]; 10 µM ligand,-2 ± 2 °C
same,ΔTm FmycT-K+,[5]; 10 µM ligand,2 ± 1 °C
same,ΔTm Febr1T-K+,[6]; 10 µM ligand,3 ± 1 °C
same,ΔTm F10T-K+,[7]; 10 µM ligand,0 ± 1 °C
same,EC50,MRC5 non-tumoral cells,> 100 µM
same,EC50,[8],> 100 µM
same,EC50,T. brucei [9],57 ± 10 µM
same,EC50,L. major,> 100 µM
same,ΔTm,[10]; 10 µM ligand,1 ± 1 °C
"NCCOc1cc(C(=O)Nc2cc(OCCN)c3ccccc3n2)nc(C(=O)Nc2cc(OCCN)c3ccccc3n2)c1 [Pyridostatin, reference compound]",ΔTm F21T-K+,[3]; 1 µM ligand,34 ± 1 °C
same,ΔTm F21T-Na+,[4]; 1 µM ligand,36 ± 2 °C
same,ΔTm FmycT-K+,[5]; 1 µM ligand,20 ± 3 °C
same,ΔTm Febr1T-K+,[6]; 1 µM ligand,29 ± 2 °C
same,ΔTm F10T-K+,[7]; 1 µM ligand,1 ± 1 °C
same,ΔTm,[10]; 1 µM ligand,34 ± 1 °C
same,ΔTm,[11],20 ± 3 °C
same,ΔTm,[12],29 ± 2 °C
same,EC50,T. brucei [2],5.5 µM
